Data reported in patent US9193990B2, “Bioluminescent metal ion assay” (priority 2013, dated 2015).

Tests used:
[1] = system: firefly luciferase-holoCA fusion protein
Description: The free zinc concentration can be related to the amount of orange emission, or preferably to the levels of luciferase emission and ultimate acceptor emission, or their ratio, which is proportional to zinc concentration.

apoNanoLuc-CA = experiment: bioluminescence emission of NanoLuc-CA with fluorescent sulfonamide and competing sulfonamide (FIG. 4); format: binding, human; settings: 19 nM free Zn, after addition of competing nonfluorescent sulfonamide
Description: In another preferred embodiment the luciferase gene fused to the human carbonic anhydrase II gene is from a variant of the luciferase isolated from the deep sea shrimp Oplophorus gracilirostris (offered commercially by Promega as Nanoluc), and the luciferin is a coelenterazine derivative called furimazine (“Engineered Luciferase Reporter from a Deep Sea Shrimp Utilizing a Novel Imidazopyrazinone Substrate” by Mary P. Hall †, James Unch ‡, Brock F. Binkowski †, Michael P. Valley †, Braeden L. Butler †, Monika G. Wood †, Paul Otto †, Kristopher Zimmerman †, Gediminas Vidugiris †, Thomas Machleidt †, Matthew B. Robers †, Hélène A. Benink †, Christopher T. Eggers †, Michael R. Slater †, Poncho L. Meisenheimer ‡, Dieter H. Klaubert ‡, Frank Fan †, Lance P. Encell *†, and Keith V. Wood † ACS Chem. Biol., 2012, 7 (11), pp 1848-1857DOI: 10.1021/cb3002478). […] An important advantage of this ratiometric approach is that it is essentially independent of time-dependent changes in bioluminescence emission, which are frequently observed. […]

[2] = biological target: wild type human carbonic anhydrase II (Homo sapiens, UniProt P00918); settings: free zinc ion, read-out: KD for binding to carbonic anhydrase; cited from earlier work

CC(=O)Nc1nnc(S(N)(=O)=O)s1 [acetazolamide]
displacement of LISSAMINE rhodamine sulfonamide from holoCA sulfonamide binding site [1]: completely displaced

fluorescein thioureidyl ethyl phenyl sulfonamide [fluorescein sulfonamide]
specificity of sulfonamide binding (apoNanoLuc-CA): specific

zinc ion
Kd [2]: ~4 pM
